Each block holds one compound with its values, some of them ahead of it.
Biological target: T1, BRD9 (Homo sapiens, UniProt Q9H8M2)
T1 sequence (Q9H8M2 1-597): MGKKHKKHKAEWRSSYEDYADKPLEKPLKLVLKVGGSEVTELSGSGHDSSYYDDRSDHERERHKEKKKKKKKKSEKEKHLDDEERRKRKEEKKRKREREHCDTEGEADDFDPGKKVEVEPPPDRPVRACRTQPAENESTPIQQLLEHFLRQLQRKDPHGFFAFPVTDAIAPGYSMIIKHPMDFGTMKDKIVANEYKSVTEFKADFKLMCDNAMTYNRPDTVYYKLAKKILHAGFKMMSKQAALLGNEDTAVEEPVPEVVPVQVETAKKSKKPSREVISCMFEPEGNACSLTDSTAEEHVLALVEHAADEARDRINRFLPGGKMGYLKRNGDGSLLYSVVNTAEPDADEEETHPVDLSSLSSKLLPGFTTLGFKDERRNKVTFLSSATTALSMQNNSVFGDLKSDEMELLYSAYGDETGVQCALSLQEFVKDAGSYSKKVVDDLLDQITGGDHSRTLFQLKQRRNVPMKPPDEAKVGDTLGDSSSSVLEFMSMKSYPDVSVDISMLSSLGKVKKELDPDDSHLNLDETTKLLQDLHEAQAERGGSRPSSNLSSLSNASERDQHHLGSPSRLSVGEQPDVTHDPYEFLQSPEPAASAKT
Test: Degradation of BRD9 (IF), immunofluorescence in MV4-11 cells, 24 hours (Assay Protocol 2)
Assay type: cell-based
Parameters: A suspension of MV4-11 cells (ATCC CRL-9591) was prepared; host or cells: MV4-11
Details: BRD9 degradation; for DC50: Assay protocol 2, read-out: DC50; for Dmax: MV4-11, Assay protocol 2, read-out: Dmax
How it was run: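 MV4-11 cells treated with compound 24 h at 37° C., then fixed, permeabilised and immunostained for BRD9 (anti-BRD9 E4Q3F, Alexa 647 secondary, Hoechst counterstain). High-content imaging quantified nuclear BRD9 signal; % BRD9 remaining normalised to DMSO and 100 nM CFT-8634 controls.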

SMILES: COc1cc(-c2cn(C)c(=O)c(C)c2C)cc(OC)c1CN1CCC(O)(Cc2cccc3c2CCN(C(=O)/C(C#N)=C/C(C)(C)C)C3C)CC1 (mixture of isomers) [Compound B175, (E/Z)-2-(5-((1-(2,6-dimethoxy-4-(1,4,5-trimethyl-6-oxo-1,6-dihydropyridin-3-yl)benzyl)-4-hydroxypiperidin-4-yl)methyl)-1-methyl-1,2,3,4-tetrahydroisoquinoline-2-carbonyl)-4,4-dimethylpent-2-enenitrile]
DC50: 25 to 1000 nM
Dmax: 40 to 70%

SMILES: COc1cc(-c2cn(C)c(=O)c(C)c2C)cc(OC)c1CN1CCN(Cc2cccc3c2CCN(C(=O)/C(C#N)=C/C(C)(C)C)[C@@H]3C(C)C)CC12CC2 (single isomer, unassigned) [Compound C82, (E/Z)-2-(5-((4-(2,6-dimethoxy-4-(1,4,5-trimethyl-6-oxo-1,6-dihydropyridin-3-yl)benzyl)-4,7-diazaspiro[2.5]octan-7-yl)methyl)-1-isopropyl-1,2,3,4-tetrahydroisoquinoline-2-carbonyl)-4,4-dimethylpent-2-enenitrile]
DC50: 25 to 1000 nM
Dmax: 40 to 70%

SMILES: COc1cc(-c2cn(C)c(=O)c(C)c2C)ccc1OC1CCN(Cc2cccc3c2CCN(C(=O)/C(C#N)=C\C(C)(C)C)C3C)C(C)(C)C1 (stereo not shown) [Compound C58]
DC50: 10 to 25 nM
Dmax: > 75%

SMILES: COc1cc(-c2cn(C)c(=O)c(C)c2C)cc(OC)c1CN(C)Cc1ccc2c(c1)[C@@H](C(C)C)N(C(=O)/C(C#N)=C/C(C)(C)C)CC2 (single isomer, unassigned) [Compound C89]
DC50: 10 to 25 nM
Dmax: 40 to 70%

SMILES: COc1cc(-c2cn(C)c(=O)c(C)c2C)ccc1O[C@H]1CC[C@@H](Nc2cccc3c2CCN(C(=O)/C(C#N)=C/C(C)(C)C)C3C)CC1 (stereo partly shown) [Compound C56]
DC50: 25 to 1000 nM
Dmax: > 75%

SMILES: COc1cc(-c2cn(C)c(=O)c(C)c2C)cc(OC)c1CN1CC[C@H](Oc2cccc3c2CCN(C(=O)/C(C#N)=C/C(C)(C)C)C3C)C1 (mixture of isomers) [Compound B133, (E/Z)-2-(5-(((R)-1-(2,6-dimethoxy-4-(1,4,5-trimethyl-6-oxo-1,6-dihydropyridin-3-yl)benzyl)pyrrolidin-3-yl)oxy)-1-methyl-1,2,3,4-tetrahydroisoquinoline-2-carbonyl)-4,4-dimethylpent-2-enenitrile]
DC50: 10 to 25 nM
Dmax: 40 to 70%

SMILES: COc1cc(-c2cn(C)c(=O)c(C)c2C)cc(OC)c1CN1CCN(Cc2ccc3c(c2)C(C)N(C(=O)/C(C#N)=C/C2(C)CCC(F)(F)CC2)CC3)C2(CC2)C1 (single isomer, unassigned) [Compound C38, (E/Z)-3-(4,4-difluoro-1-methylcyclohexyl)-2-(7-((7-(2,6-dimethoxy-4-(1,4,5-trimethyl-6-oxo-1,6-dihydropyridin-3-yl)benzyl)-4,7-diazaspiro[2.5]octan-4-yl)methyl)-1-methyl-1,2,3,4-tetrahydroisoquinoline-2-carbonyl)acrylonitrile]
DC50: 1.25 to 10 nM
Dmax: 70 to 75%

SMILES: COc1cc(-c2cn(C)c(=O)c(C)c2C)cc(OC)c1CN1CCN(Cc2ccc3c(c2)[C@@H](C(C)C)N(C(=O)/C(C#N)=C/C(C)(C)C)CC3)C2(CC2)C1 (single isomer, unassigned) [Compound C88, (E/Z)-2-(7-((7-(2,6-dimethoxy-4-(1,4,5-trimethyl-6-oxo-1,6-dihydropyridin-3-yl)benzyl)-4,7-diazaspiro[2.5]octan-4-yl)methyl)-1-isopropyl-1,2,3,4-tetrahydroisoquinoline-2-carbonyl)-4,4-dimethylpent-2-enenitrile]
DC50: 25 to 1000 nM
Dmax: 40 to 70%

Next, values leading:

DC50: 1.25 to 10 nM
Dmax: > 75%
SMILES: CCC(C)(C)/C=C(\C#N)C(=O)N1CCc2c(CN3CCN(Cc4c(OC)cc(-c5cn(C)c(=O)c(C)c5C)cc4OC)CC34CC4)cccc2C1C (mixture of isomers) [Compound B117, (E/Z)-2-(5-((7-(2,6-dimethoxy-4-(1,4,5-trimethyl-6-oxo-1,6-dihydropyridin-3-yl)benzyl)-4,7-diazaspiro[2.5]octan-4-yl)methyl)-1-methyl-1,2,3,4-tetrahydroisoquinoline-2-carbonyl)-4,4-dimethylhex-2-enenitrile]

DC50: < 1.25 nM
Dmax: 40 to 70%
SMILES: COc1cc(-c2cn(C)c(=O)c(C)c2C)cc(OC)c1C(=O)N1CCN(Cc2cccc3c2CCN(C(=O)/C(C#N)=C/c2cccc(Br)n2)C3C)CC1 (mixture of isomers) [Compound B80, (E/Z)-3-(6-bromopyridin-2-yl)-2-(5-((4-(2,6-dimethoxy-4-(1,4,5-trimethyl-6-oxo-1,6-dihydropyridin-3-yl)benzoyl)piperazin-1-yl)methyl)-1-methyl-1,2,3,4-tetrahydroisoquinoline-2-carbonyl)acrylonitrile]

DC50: 1.25 to 10 nM
Dmax: > 75%
SMILES: COc1cc(-c2cn(C)c(=O)c(C)c2C)cc(OC)c1CN1CCC(Oc2cccc(C3CCCN3C(=O)/C(C#N)=C/C(C)(C)C)c2)CC1 (mixture of isomers) [Compound B48, (E/Z)-2-(2-(3-((1-(2,6-dimethoxy-4-(1,4,5-trimethyl-6-oxo-1,6-dihydropyridin-3-yl)benzyl)piperidin-4-yl)oxy)phenyl)pyrrolidine-1-carbonyl)-4,4-dimethylpent-2-enenitrile]

DC50: 1.25 to 10 nM
Dmax: 40 to 70%
SMILES: COc1cc(-c2cn(C)c(=O)c(C)c2C)cc(OC)c1CN1CC2CCC1CN2Cc1cccc2c1CCN(C(=O)/C(C#N)=C/C(C)(C)C)C2C (mixture of isomers) [Compound B101, (E/Z)-2-(5-((5-(2,6-dimethoxy-4-(1,4,5-trimethyl-6-oxo-1,6-dihydropyridin-3-yl)benzyl)-2,5-diazabicyclo[2.2.2]octan-2-yl)methyl)-1-methyl-1,2,3,4-tetrahydroisoquinoline-2-carbonyl)-4,4-dimethylpent-2-enenitrile]

DC50: 1.25 to 10 nM
Dmax: > 75%
SMILES: COc1cc(-c2cn(C)c(=O)c(C)c2C)cc(OC)c1CN1CCN(Cc2ccc3c(c2)C(C)N(C(=O)/C(C#N)=C/C(C)(C)CCl)CC3)C2(CC2)C1 (single isomer, unassigned) [Compound B203, (E/Z)-5-chloro-2-(7-((7-(2,6-dimethoxy-4-(1,4,5-trimethyl-6-oxo-1,6-dihydropyridin-3-yl)benzyl)-4,7-diazaspiro[2.5]octan-4-yl)methyl)-1-methyl-1,2,3,4-tetrahydroisoquinoline-2-carbonyl)-4,4-dimethylpent-2-enenitrile]

DC50: < 1.25 nM
Dmax: > 75%
SMILES: COc1cc(-c2cn(C)c(=O)c(C)c2C)cc(OC)c1CN1CCN(Cc2cccc3c2CCN(C(=O)/C(C#N)=C/C2(C)CCOCC2)[C@@H]3C)C2(CC2)C1 (single isomer, unassigned) [Compound B193, (E/Z)-2-(5-((7-(2,6-dimethoxy-4-(1,4,5-trimethyl-6-oxo-1,6-dihydropyridin-3-yl)benzyl)-4,7-diazaspiro[2.5]octan-4-yl)methyl)-1-methyl-1,2,3,4-tetrahydroisoquinoline-2-carbonyl)-3-(4-methyltetrahydro-2H-pyran-4-yl)acrylonitrile]

DC50: 1.25 to 10 nM
Dmax: > 75%
SMILES: CC[C@H]1CN(Cc2c(OC)cc(-c3cn(C)c(=O)c(C)c3C)cc2OC)CCN1Cc1cccc2c1CCN(C(=O)/C(C#N)=C/C(C)(C)C)C2C (mixture of isomers) [Compound B113, (E/Z)-2-(5-(((S)-4-(2,6-dimethoxy-4-(1,4,5-trimethyl-6-oxo-1,6-dihydropyridin-3-yl)benzyl)-2-ethylpiperazin-1-yl)methyl)-1-methyl-1,2,3,4-tetrahydroisoquinoline-2-carbonyl)-4,4-dimethylpent-2-enenitrile]

DC50: < 1.25 nM
Dmax: > 75%
SMILES: COc1cc(-c2cn(C)c(=O)c(C)c2C)cc(OC)c1CN1CCN(Cc2cccc3c2CCN(C(=O)/C(C#N)=C\C24CC(C)(C2)C4)C3C)C2(CC2)C1 (mixture of isomers) [Compound B161, (E/Z)-2-(5-((7-(2,6-dimethoxy-4-(1,4,5-trimethyl-6-oxo-1,6-dihydropyridin-3-yl)benzyl)-4,7-diazaspiro[2.5]octan-4-yl)methyl)-1-methyl-1,2,3,4-tetrahydroisoquinoline-2-carbonyl)-3-(3-methylbicyclo[1.1.1]pentan-1-yl)acrylonitrile]

DC50: 1.25 to 10 nM
Dmax: 70 to 75%
SMILES: COc1cc(-c2cn(C)c(=O)c(C)c2C)cc(OC)c1CN1CCN(Cc2cccc3c2CCN(C(=O)/C(C#N)=C/c2cccc(Br)n2)C3C(C)C)CC1 (mixture of isomers) [Compound C21, (E/Z)-3-(6-bromopyridin-2-yl)-2-(5-((4-(2,6-dimethoxy-4-(1,4,5-trimethyl-6-oxo-1,6-dihydropyridin-3-yl)benzyl)piperazin-1-yl)methyl)-1-isopropyl-1,2,3,4-tetrahydroisoquinoline-2-carbonyl)acrylonitrile]
